We go through three compounds from PMC12265377, “CC48 a new CB2R agonist/FAAH inhibitor dual drug blocks gastric cancer progression and overcomes paclitaxel resistance” (Journal of Experimental & Clinical Cancer Research : CR, 2025).

Each structure is given as a SMILES string. “And” between values parts separate entries of the source, which are not always exact repeats. Equal values may be shown once.

In general, IC50 refers to the concentration needed to halve the response being measured. What is called Ki is a measure of affinity in units of concentration, obtained from inhibition or displacement.

For assay [1], the target named is T1, FAAH Human recombinant (Homo sapiens, UniProt O00519).
T1 construct: purchased Cayman Chemical
T1 sequence (O00519 1-579): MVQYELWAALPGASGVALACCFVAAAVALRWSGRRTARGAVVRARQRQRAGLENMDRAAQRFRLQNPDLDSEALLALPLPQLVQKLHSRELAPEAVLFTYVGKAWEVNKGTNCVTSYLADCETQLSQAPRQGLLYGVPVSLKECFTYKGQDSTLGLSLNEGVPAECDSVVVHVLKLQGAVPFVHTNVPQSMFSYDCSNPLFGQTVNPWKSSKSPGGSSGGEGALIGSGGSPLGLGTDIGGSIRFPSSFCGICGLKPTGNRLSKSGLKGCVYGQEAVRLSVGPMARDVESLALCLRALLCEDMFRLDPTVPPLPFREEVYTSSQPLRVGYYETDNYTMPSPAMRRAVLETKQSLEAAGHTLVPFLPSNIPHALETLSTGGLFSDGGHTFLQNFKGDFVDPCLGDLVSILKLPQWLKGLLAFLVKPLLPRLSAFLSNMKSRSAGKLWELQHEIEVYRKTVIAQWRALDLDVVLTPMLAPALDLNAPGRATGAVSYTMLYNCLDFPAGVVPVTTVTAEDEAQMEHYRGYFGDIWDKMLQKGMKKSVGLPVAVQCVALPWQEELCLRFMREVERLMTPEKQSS
Kind of assay: FAAH inhibition assay. In kind it is biochemical. The following applies: ± SEM, substrate AMC-AA 1 µM. As for the experimental part:
Assays were performed using 96-well black flat-bottom microtiter NBS plates (COSTAR flat black). […] The substrate (7-amino-4-methyl-2 H-1-benzopyran-2-one-5Z,8Z,11Z,14Z-eicosatetraen-amide, AMC-AA, 1µM final concentration) was then added, and the assay was incubated for 2 h at 37 °C in a TECAN infinite M1000Pro plate reader (Tecan, Männedorf, Switzerland) which measured the fluorescence from each well every 30 s (λex = 340 nm, λem = 450 nm), determining FAAH activity as relative fluorescence units (RFU). Control wells lacking the inhibitor and blank wells lacking both inhibitor and enzyme were used to calculate the percent inhibition for each tested compound. IC50 values were calculated via GraphPad Prism 5.0 (GraphPad Software, La Jolla, CA, USA) and are reported as mean ± SEM of at least three independent measurements performed in triplicate.

The test system of assay [2] is HGC27-R cells. Kind of assay: Muse Ki67 cell proliferation assay. The class given is cell-based, human. The settings on record: for percentage of Ki67+ cells: combined with PTX (10 µM compound; 6 µM AM630). The text has this: (§1) After the specified drug treatments, the cells were processed with the Muse Ki67 cell proliferation kit, which identified actively proliferating cells based on the expression of Ki67, a nuclear protein present in the active phases of the cell cycle (G1, S, G2, and M phases) and absent in the resting G0 phase. The Muse Ki67 Proliferation Assay was used with the Guava Muse Cell Analyzer according to the manufacturer’s instructions (Luminex Corporation, Austin, USA). Briefly, the cells were stained after fixation and permeabilization procedures, using Hu Ki67 or Hu IgG1 control fluorochrome-conjugated antibodies to distinguish Ki67(+) or Ki67(-) cells, respectively. The software provided the percentage of both Ki67(+) and Ki67(-) cells.

Assay [3] relates to CB1R. The settings on record: cited from earlier work.
In assay [4] the test system is NCI-N87 cells. Nature of the assay: Muse Ki67 cell proliferation assay. The class given is cell-based, human.
From the text: as §1

Assay [5] concerns HGC27-S cells. Nature of the assay: VEGFA in cell culture medium (ELISA). The class given is cell-based, human. The settings on record: 10 µM, 48 h, untreated 3.82. Here is the method: The amount of VEGFA secreted in the culture medium by HGC27-S/R and AGS treated cells was measured using a highly sensitive Enzyme-Linked Immunosorbent Assay (ELISA), Quantikine Kit ELISA (R&D Systems, Minneapolis, MN, USA), according to the manufacturer’s instructions. The measured values were normalized to the number of cells.
A general note: In an ELISA, binding on a coated surface is turned into a signal by an enzyme label.

Assay [6] relates to CB2R. Kind of assay: CB2R affinity (literature values). The settings on record: CB2R vs CB1R. The class given is binding.
For assay [7], the system named is NCI-N87_LUC cell line. Nature of the assay: Mouse model by intraperitoneal NCI-N87_LUC inoculation, tumor growth by IVIS. The class given is in vivo, CD1-nude female mice. The settings on record: for BLI measurement, individual animals: listed as FI-5; for tumor volume vs control group (vehicle): day 41. Here is the method:
EighteenCD1-nude female mice(Charles River Laboratories International, Inc.) were intraperitoneally injected with the NCI-N87 cell line, stable transfected with the luciferase gene (NCl-N87_LUC) at a concentration of 2 × 10^6/100µL cells. Experimental groups and treatments are described in the table below (Table 1). Two concentrations of the CC48 molecule, 10 and 20 mg/Kg, were tested in two experimental groups. A third group was treated with the vehicle, consisting of20% DMSO, 10% Cyclodextrin and distilled water. […] The staff involved in the study recorded all the observations on recording forms. The data concerning animals’ body weight, clinical signs, feed intake and TP intake were recorded on the experimental register. All the corrections on data collection forms were made according to the Test Facility SOPs. All derived values, of registered tumor volumes, which are reported in the Tables S2 and S3 and relative graphs, such as mean and standard deviation, represent the rounded-up results of calculation performed with Microsoft Excel. Dunnett’s multiple comparison statistical test was applied.

Where [8] appears, read: NCI-N87, single treatment (10 µM compound; 2 nM PTX), control 78.2%.
[9] abbreviates: representative flow cytometry chart, 48 h, 10 µM CC48, PTX, single or combined as labelled.

For the compound `COc1ccc(C(=O)c2c(C)n(CCN3CCOCC3)c3cc(I)ccc23)cc1` [AM630, reference compound], in assay [1], the “FAAHi IC50” value is “low FAAH inhibition activity”. In addition, the 50% inhibitory concentration (IC50) in assay [1] (read-out: FAAHi IC50) was 20 ± 2.8 µM. Further, in assay [2], the “percentage of Ki67+ cells” value is given as 51.3%.

Take `CCCCCNc1ccccc1C(=O)NC12CC3CC(CC(C3)C1)C2` [ASF151]: the “CB1R affinity % at 1µM (percentage of displacement at 1 µM)” value in assay [3] (1 µM) is listed as 31%^23. The “percentage of Ki67+ cells” value in assay [4] (setting [8]) came out at 68.3%.

As for `O=C(NC12CC3CC(CC(C3)C1)C2)c1ccccc1OCc1ccccc1` [CC48], the Ki in assay [3] (± SEM, read-out: CB1R affinity Ki) was 0.2413 ± 0.0024 µM. The “VEGFA secretion in culture medium” value in assay [5] came out at 2.6 pg/mL/cell. Besides, the “fold higher affinity for CB2R compared to CB1R” value in assay [6] is listed as 16 fold. Also, the “BLI measurement, group MEAN” value is 1,45E+05 in assay [7] (GP2 10mg/kg, DAY 5, n 5 (outlier ID 7 excluded)); 1,29E+05 in assay [7] (GP2 10mg/kg, DAY 7, n 5); 1,07E+05 in assay [7] (GP2 10mg/kg, DAY 10, n 5); 1,83E+05 in assay [7] (GP2 10mg/kg, DAY 14, n 5); 2,73E+05 in assay [7] (GP2 10mg/kg, DAY 17, n 5); 3,18E+05 in assay [7] (GP2 10mg/kg, DAY 24, n 5). Further, the “BLI measurement, group MEAN” value in assay [7] (GP2 10mg/kg, DAY 31, n 5) is given as 3,12E+05; in assay [7] (GP2 10mg/kg, DAY 35, n 5), 2,44E+05; in assay [7] (GP2 10mg/kg, DAY 38, n 5), 4,60E+04; in assay [7] (GP2 10mg/kg, DAY 41, n 5), 2,12E+05; in assay [7] (GP3 20mg/kg, DAY 5, n 5 (outlier ID 13 excluded)), 2,03E+05; in assay [7] (GP3 20mg/kg, DAY 7, n 5), 1,10E+05. For the same compound, the “BLI measurement, group MEAN” value in assay [7] (GP3 20mg/kg, DAY 10, n 5) is recorded as 8,98E+04; in assay [7] (GP3 20mg/kg, DAY 14, n 5) it was 1,18E+05; in assay [7] (GP3 20mg/kg, DAY 17, n 5), 1,51E+05; in assay [7] (GP3 20mg/kg, DAY 24, n 5), 2,46E+05; in assay [7] (GP3 20mg/kg, DAY 31, n 5), 2,64E+05; in assay [7] (GP3 20mg/kg, DAY 35, n 5) it was 3,58E+05. The “BLI measurement, group MEAN” value in assay [7] (GP3 20mg/kg, DAY 38, n 5) is 2,00E+05; in assay [7] (GP3 20mg/kg, DAY 41, n 5) it was 2,00E+04. Further, the “BLI measurement, individual animals” value in assay [7] (GP2 10mg/kg, DAY 5) was 1,32E+06 and 5,58E+05 and 1,13E+05 and 4,14E+04 and 9,93E+03 and 3,23E+03; in assay [7] (GP2 10mg/kg, DAY 7), 1,55E+06 and 5,41E+05 and 7,10E+04 and 2,79E+04 and 3,30E+03 and 2,39E+03; in assay [7] (GP2 10mg/kg, DAY 10) it was 1,30E+06 and 4,73E+05 and 4,20E+04 and 1,70E+04 and 2,56E+03 and 2,69E+03; in assay [7] (GP2 10mg/kg, DAY 14) it was 7,07E+05 and 8,53E+05 and 3,80E+04 and 1,58E+04 and 2,68E+03 and 3,22E+03; in assay [7] (GP2 10mg/kg, DAY 17), 8,99E+05 and 1,29E+06 and 6,23E+04 and 1,12E+04 and 1,95E+03 and 1,85E+03; in assay [7] (GP2 10mg/kg, DAY 24) it was 1,09E+06 and 1,51E+06 and 6,35E+04 and 1,11E+04 and 2,24E+03 and 2,96E+03. Besides, the “BLI measurement, individual animals” value was 1,51E+06 and 1,43E+06 and 1,11E+05 and 1,60E+04 and 3,40E+03 and 3,65E+03 in assay [7] (GP2 10mg/kg, DAY 31); 2,93E+06 and 1,06E+06 and 1,41E+05 and 1,56E+04 and 3,01E+03 and 3,50E+03 in assay [7] (GP2 10mg/kg, DAY 35); 4,74E+06 and 1,04E+05 and 1,11E+05 and 9,13E+03 and 2,90E+03 and 2,69E+03 in assay [7] (GP2 10mg/kg, DAY 38); 3,93E+06 and 8,93E+05 and 1,54E+05 and 9,95E+03 and 3,19E+03 and 2,28E+03 in assay [7] (GP2 10mg/kg, DAY 41); 1,03E+06 and 8,12E+05 and 1,11E+05 and 7,63E+04 in assay [7] (GP3 20mg/kg, DAY 5); 7,47E+05 and 4,61E+05 and 2,67E+04 and 5,08E+04 in assay [7] (GP3 20mg/kg, DAY 7). In addition, the “BLI measurement, individual animals” value in assay [7] (GP3 20mg/kg, DAY 10) is 3,56E+05 and 3,68E+05 and 3,53E+04 and 3,80E+04; in assay [7] (GP3 20mg/kg, DAY 14), 1,23E+06 and 5,29E+05 and 3,27E+04 and 1,72E+04; in assay [7] (GP3 20mg/kg, DAY 17) it was 1,63E+06 and 7,10E+05 and 2,61E+04 and 1,16E+04; in assay [7] (GP3 20mg/kg, DAY 24) it was 1,67E+06 and 1,15E+06 and 3,46E+04 and 3,03E+04; in assay [7] (GP3 20mg/kg, DAY 31), 1,22E+06 and 1,26E+06 and 2,79E+04 and 1,85E+04; in assay [7] (GP3 20mg/kg, DAY 35), 2,08E+06 and 1,71E+06 and 4,56E+04 and 2,63E+04. In addition, the “BLI measurement, individual animals” value in assay [7] (GP3 20mg/kg, DAY 38) was 2,42E+06 and 9,14E+05 and 3,50E+04 and 4,29E+04; in assay [7] (GP3 20mg/kg, DAY 41) it was 1,34E+06 and 3,58E+04 and 3,11E+04 and 2,06E+04. For the same compound, the “tumor volume vs control group (vehicle)” value is “substantial and significant decrease in tumor volume” in assay [7] (GP2, 10 mg/kg IP every other day, p < 0.01); “statistically significant difference in the size of the tumor mass” in assay [7] (GP3, 20 mg/kg IP every other day, p < 0.001). The “percentage of Ki67+ cells” value in assay [2] worked out at 67.9%; in assay [4] (NCI-N87, cotreatment with PTX, PTX alone 68.1%), 59.9%; in assay [4] (setting [8]) it was 60.9%. Moreover, the “Ki67(+) cells” value in assay [2] (setting [9]) amounted to 84.00%. In assay [2] (setting [9]), the “Ki67(-) cells” value worked out at 16.00%.
